# Data published in PMC8121805, “Discovery of first-in-class inhibitors of ASH1L histone methyltransferase with anti-leukemic activity” (Nature Communications, 2021).
# Values joined by “and” are separate entries in the source; they are usually repeats but may differ in a detail not shown here. Equal entries are not always repeated.
# Tests used:
# Format in all cases: cell-based, human
# [1] = test system: MV4;11 cells; assay: Annexin V apoptosis assay (flow cytometry); details: for MV4;11 % Annexin V(+) cells / MV4;11 % Annexin V/PI+ cells: 7 days; for apoptosis in the MLL leukemia cells (Annexin V positive cells): MV4;11 and KOPN8
# [2] = test system: MLL fusion target genes in MOLM13 cells; assay: Real time qRT-PCR gene expression; design: key to MEIS1 expression / FLT3 expression / HOXA9 expression / MNDA expression / MEF2C expression / DLX2 expression: fold change vs DMSO-treated cells, normalized to HPRT1 (comparative Ct); details: for DLX2 expression / FLT3 expression / HOXA9 expression / MEF2C expression / MEIS1 expression / MNDA expression: MOLM13, 7 days, normalized to HPRT1, referenced to DMSO
# Description: 0.5 × 10^6 – 3 × 10^6 cells from each sample were collected at days 7 or 8 of treatment, centrifuged at 211 xg, and RNA was extracted according to the RNeasy Mini Kit protocol (74106, Qiagen). Extracted RNA was quantified using Nanodrop 2000 UV-Vis spectrophotometer and 0.5–1 µg of total RNA was reverse transcribed into cDNA using High-Capacity cDNA Reverse Transcription Kit (4368814, Applied Biosystems™) according to the manufacturer’s protocol. Real-time PCR was performed using the CFX96 Touch Real-Time PCR Detection System (Bio-Rad). TaqMan Gene Expression Master Mix and TaqMan Gene Expression Assays were purchased from Applied Biosystems. Relative quantification of each gene transcript was carried out using the comparative Ct method as described in the Applied Biosystems User Bulletin no. 2. TaqMan Gene Expression Assays were used: HPRT1: Hs02800695_m1, DLX2: Hs00269993_m1, FLT3: Hs00174690_m1, HOXA9: Hs00365956_m1, MEF2C: Hs00231149_m1, MEIS1: Hs00180020_m1, MNDA: Hs00935905_m1.
# Supplementary Figure 10. Effect of AS-nc on gene expression in MLL leukemia cells. (a, b) Quantitative RT-PCR performed in MOLM13 cells (a) or MV4;11 cells (b) after 7 days of treatment with AS-nc. Gene expression was normalized to HPRT1 and referenced to the DMSO treated cells. Representative data from two independent experiments, each performed in triplicates, […]
# [3] = test system: MOLM13 cells; assay: MTT cell viability assay; details: MTT, 7 days
# Description: (§1) FBS and 1% penicillin/streptomycin. […] Media was changed on day 3 or 4 and compounds were resupplied. […] Cell suspensions (100 μL) were transferred to the 96-well plates for each sample in quadruplicate at the time of media change. At day 7, 10 µL of MTT reagent (M6494, Molecular Probes™) was added to each well of the 96 well plate and incubated at 37 °C for 4 h. The formazan was then solubilized by adding 100 µL acidified 10% SDS solution and incubated at 37 °C overnight. Plates were read for absorbance at 570 nm using a PHERAstar BMG microplate reader. The experiments were performed two times in quadruplicates with calculation of mean and SD for each condition. Data were analyzed in Prism 8.0.0 to obtain GI50 values.
# (§2) Supplementary Figure 7. […] (a)
# (§3) Titration curves from the MTT cell viability assay performed after 4, 7, and 11 (or 10) days of
# (§4) Titration curves from the MTT cell viability assay performed after 7 days of treatment of KOPN8 ,
# (§5) MOLM13 and MV4;11 cell lines harboring MLL1 translocation (MLL1-r) or K562 cell line (non-
# (§6) Representative graphs are shown
# (§7) from two independent MTT experiments performed for each cell line.
# [4] = test system: MV4;11 cells; assay: MTT cell viability assay; details: MTT, 7 days
# Description: as §1, §2, §3, §4, §5, §6, §7
# [5] = test system: MLL leukemia cells (MV4;11, MOLM13, KOPN8, RS4;11); assay: MTT cell viability assay, MLL leukemia cells as a group
# Description: Human leukemia cells K562, MV4;11 and RS4;11 (purchased from ATCC) and KOPN8, MOLM13 (purchased from DSMZ) were cultured in RPMI 1640 (Invitrogen) supplemented with 10% heat inactivated (h.i.) FBS and 1% penicillin/streptomycin (Invitrogen). SET2 cells (purchased from DSMZ) were cultured in RPMI 1640 supplemented with 20% h.i. FBS and 1% penicillin/streptomycin. Cells were plated at 1 × 10^5 to 2 × 10^5 cells/mL depending on cell line and treated with 0.25% DMSO or varying concentrations of compounds and incubated at 37 °C, 5% CO2 incubator for 7 days. Media was changed on day 3 or 4 and compounds were resupplied. […] Cell suspensions (100 μL) were transferred to the 96-well plates for each sample in quadruplicate at the time of media change. At day 7, 10 µL of MTT reagent (M6494, Molecular Probes™) was added to each well of the 96 well plate and incubated at 37 °C for 4 h. The formazan was then solubilized by adding 100 µL acidified 10% SDS solution and incubated at 37 °C overnight. Plates were read for absorbance at 570 nm using a PHERAstar BMG microplate reader. The experiments were performed two times in quadruplicates with calculation of mean and SD for each condition. Data were analyzed in Prism 8.0.0 to obtain GI50 values.
# Supplementary Figure 4. Cell viability assay for AS-6 in MLL leukemia cell lines. Titration curves from the MTT cell viability assay performed after 7 days of treatment of human MLL1- […]
# replicates. Representative graphs are shown from two independent MTT experiments performed […]
# as §2
# Titration curves from the MTT cell viability assay performed after 4, 7, and 11 (or 10) days of […]
# Titration curves from the MTT cell viability assay performed after 7 days of treatment of KOPN8 , MOLM13 and MV4;11 cell lines harboring MLL1 translocation (MLL1-r) or K562 cell line (non- […]
# Representative graphs are shown from two independent MTT experiments performed for each cell line. GI50 values correspond to […]
compound,measurement,setting,value
CN1CC(C(=O)NCc2ccc3c(-c4cccc(C(N)=O)c4)cn(C4CCN(S(=O)(=O)C(F)(F)F)CC4)c3c2)C1 [AS-nc],MV4;11 % Annexin V(+) cells,[1]; 2 uM,3.62% and 6.04% and 7.38%
same,MV4;11 % Annexin V(+) cells,[1]; 4 uM,2.35% and 3.67% and 4.83%
same,MV4;11 % Annexin V(+) cells,[1]; 6 uM,3% and 3.59% and 6.28%
same,apoptosis in the MLL leukemia cells (Annexin V positive cells),[1],not observed
same,"MOLM13 fold change vs DMSO, DLX2",[2]; AS-nc 2 uM,1.06 and 1.01 and 0.76
same,"MOLM13 fold change vs DMSO, FLT3",[2]; AS-nc 2 uM,1.07 and 0.95 and 0.92
same,"MOLM13 fold change vs DMSO, HOXA9",[2]; AS-nc 2 uM,1.01 and 1.09 and 0.84
same,"MOLM13 fold change vs DMSO, MEF2C",[2]; AS-nc 2 uM,0.98 and 1.02 and 0.94
same,"MOLM13 fold change vs DMSO, MEIS1",[2]; AS-nc 2 uM,1.03 and 1.08 and 0.97
same,"MOLM13 fold change vs DMSO, MNDA",[2]; AS-nc 2 uM,1.45 and 1.05 and 1.01
same,"MOLM13 fold change vs DMSO, DLX2",[2]; AS-nc 4 uM,1.02 and 0.96 and 0.71
same,"MOLM13 fold change vs DMSO, FLT3",[2]; AS-nc 4 uM,1.03 and 0.86 and 0.96
same,"MOLM13 fold change vs DMSO, HOXA9",[2]; AS-nc 4 uM,0.95 and 1 and 1.06
same,"MOLM13 fold change vs DMSO, MEF2C",[2]; AS-nc 4 uM,1 and 0.95 and 1.01
same,"MOLM13 fold change vs DMSO, MEIS1",[2]; AS-nc 4 uM,0.97 and 1.1 and 0.95
same,"MOLM13 fold change vs DMSO, MNDA",[2]; AS-nc 4 uM,1.29 and 1.57 and 1.44
same,"MOLM13 fold change vs DMSO, DLX2",[2]; AS-nc 6 uM,1.04 and 1 and 0.77
same,"MOLM13 fold change vs DMSO, FLT3",[2]; AS-nc 6 uM,1.07 and 0.95 and 0.88
same,"MOLM13 fold change vs DMSO, HOXA9",[2]; AS-nc 6 uM,1.03 and 0.88 and 0.9
same,"MOLM13 fold change vs DMSO, MEF2C",[2]; AS-nc 6 uM,1.03 and 0.94 and 0.96
same,"MOLM13 fold change vs DMSO, MEIS1",[2]; AS-nc 6 uM,0.86 and 1.09 and 0.93
same,"MOLM13 fold change vs DMSO, MNDA",[2]; AS-nc 6 uM,1.31 and 1.06 and 0.93
same,"expression of MLL fusion target genes (MEF2C, DLX2, FLT3, HOXA9)",[2]; MOLM13 and MV4;11,no changes
same,% activity MOLM-13,[3]; log[compound] -4.92082,79.465% and 80.5109% and 111.082% and 96.078%
same,% activity MOLM-13,[3]; log[compound] -5.22185,91.4119% and 88.8777% and 88.5559% and 94.107%
same,% activity MOLM-13,[3]; log[compound] -5.52288,100.261% and 95.3942% and 100.744% and 98.5318%
same,% activity MOLM-13,[3]; log[compound] -5.82391,98.572% and 96.1183% and 100.945% and 90.7281%
same,% activity MOLM-13,[3]; log[compound] -6.12494,105.41% and 99.4972% and 101.227% and 102.474%
same,% activity MOLM-13,[3]; log[compound] -6.42597,103.801% and 99.1352% and 97.8479% and 99.2156%
same,% activity MV4;11,[4]; log[compound] -4.92082,33.9271% and 38.4523% and 37.682% and 37.2006%
same,% activity MV4;11,[4]; log[compound] -5.22185,75.4242% and 68.4439% and 74.2207% and 76.0501%
same,% activity MV4;11,[4]; log[compound] -5.52288,93.14% and 102.624% and 98.3873% and 102.19%
same,% activity MV4;11,[4]; log[compound] -5.82391,95.1619% and 88.5666% and 92.2253% and 96.7986%
same,% activity MV4;11,[4]; log[compound] -6.12494,101.179% and 95.4026% and 92.466% and 99.4464%
same,% activity MV4;11,[4]; log[compound] -6.42597,105.753% and 96.7024% and 99.7834% and 97.7615%
same,effect on MLL leukemia cells (viability),[5]; 7 days,no or much weaker effects
CN1CC(C(=O)NCc2ccc3c(-c4cccc(C(N)=S)c4)cn(C4CCN(S(=O)(=O)C(F)(F)F)CC4)c3c2)C1 [AS-99],MV4;11 % Annexin V/PI+ cells,[1]; 3 uM,5.84% and 5.81% and 5.56%
same,MV4;11 % Annexin V/PI+ cells,[1]; 4.5 uM,21.9% and 12.8%
same,apoptosis in the MLL leukemia cells (Annexin V positive cells),[1],induced apoptosis
same,DLX2 expression,[2]; 2 uM,0.56 and 0.75 and 0.61
same,FLT3 expression,[2]; 2 uM,0.69 and 0.97 and 0.78
same,HOXA9 expression,[2]; 2 uM,0.72 and 0.91 and 0.9
same,MEF2C expression,[2]; 2 uM,0.67 and 0.89 and 0.83
same,MEIS1 expression,[2]; 2 uM,0.79 and 0.98 and 0.9
same,MNDA expression,[2]; 2 uM,1.83 and 1.84 and 1.74
same,DLX2 expression,[2]; 4 uM,0.44 and 0.5 and 0.58
same,FLT3 expression,[2]; 4 uM,0.67 and 0.76 and 0.61
same,HOXA9 expression,[2]; 4 uM,0.76 and 0.94 and 0.79
same,MEF2C expression,[2]; 4 uM,0.59 and 0.77 and 0.68
same,MEIS1 expression,[2]; 4 uM,0.89 and 0.77 and 0.75
same,MNDA expression,[2]; 4 uM,2.92 and 2.39 and 3.74
same,DLX2 expression,[2]; 6 uM,0.53 and 0.54 and 0.7
same,FLT3 expression,[2]; 6 uM,0.53 and 0.65 and 0.5
same,HOXA9 expression,[2]; 6 uM,0.69 and 0.9 and 0.7
same,MEF2C expression,[2]; 6 uM,0.48 and 0.65 and 0.64
same,MEIS1 expression,[2]; 6 uM,0.71 and 0.74 and 0.69
same,MNDA expression,[2]; 6 uM,3.99 and 3.93 and 2.86
same,expression level of the MNDA differentiation marker,[2]; MOLM13 and MV4;11,substantial increase
same,"expression of MLL fusion target genes (MEF2C, DLX2, FLT3, HOXA9)",[2]; MOLM13 and MV4;11,dose-dependent downregulation
same,GI50,"[3]; Homo sapiens, MOLM-13, 168 h, MOLM13 (MLL1-r)",3.6 ± 0.3 µM
same,% activity MOLM-13,[3]; log[compound] -4.92082,3.13% and 3.054% and 2.978%
same,% activity MOLM-13,[3]; log[compound] -5.22185,1.145% and 1.069% and 1.222%
same,% activity MOLM-13,[3]; log[compound] -5.52288,67.0357% and 69.5553% and 72.2275% and 71.6931%
same,% activity MOLM-13,[3]; log[compound] -5.82391,99.1792% and 96.2016% and 97.7286% and 103.76%
same,% activity MOLM-13,[3]; log[compound] -6.12494,111.472% and 117.274% and 111.243% and 116.205%
same,% activity MOLM-13,[3]; log[compound] -6.42597,98.5684% and 93.0712% and 98.6448% and 96.736%
same,GI50,"[4]; Homo sapiens, 168 h, MV4;11 (MLL1-r)",1.8 ± 0.2 µM
same,% activity MV4;11,[4]; log[compound] -4.92082,1.588% and 2.029%
same,% activity MV4;11,[4]; log[compound] -5.22185,0.6174% and 0.7056% and 0.9702%
same,% activity MV4;11,[4]; log[compound] -5.52288,22.9327% and 24.6086% and 18.5226% and 19.2282%
same,% activity MV4;11,[4]; log[compound] -5.82391,65.4465% and 63.065% and 69.151% and 68.269%
same,% activity MV4;11,[4]; log[compound] -6.12494,88.9085% and 99.8456% and 101.963% and 98.4344%
same,% activity MV4;11,[4]; log[compound] -6.42597,97.7288% and 98.9636% and 100.639% and 102.668%
same,GI50,"[5]; Homo sapiens, MLL leukemia cells",1.8 to 3.6 µM
